In US5428051A, “Methods of combating pneumocystis carinii pneumonia and compounds useful therefor” (priority 1992, dated 1995):
Where two headings read alike, the source gives them in different places.

Tests used:
[1] = Toxicity of the test compounds in rats (graded by local, clinical and histologic criteria); assay type: in vivo, Sprague-Dawley rats; details: for Toxicity: 10.0 mg/kg, daily i.v., 14 days
Description: (§1) Male Sprague-Dawley rats, barrier raised, non-certified virus free, weighing 150-200 g were obtained from Hilltop Laboratories and housed individually. Animals were begun on a low (8%) protein diet (ICN Biomedicals, Cincinnati, Ohio) and drinking water containing tetracycline (0.5 mg/ml) and dexamethasone (1.0 μg/ml). This treatment was given for the next 8 weeks, monitoring fluid intake daily and weighing animals weekly. Dilutions of the drinking solution were made when animals consumed too much fluid so as to prevent cortisone poisoning. At the beginning of the sixth week animals were divided into groups of eight or more animals each and the test compounds were administered daily by i.v. injection into the tail vein at the indicated dose for the next 14 days or orally by gavage for the next 14 days.

Pneumocystis carinii [2] = assay: Treatment of Pneumocystis carinii pneumonia in rats: cyst count in lung homogenate (cresyl violet); assay type: in vivo, Sprague-Dawley rats; details: for response vs control in vivo at 10 mg/kg / response vs control in vivo at 5 mg/kg: Pneumocystis carinii, iv, 336 h, read-out: Cysts/g Lung (% of Control)
Description: (§2) Induction and Treatment of Pneumocystis carinii in Sprague-Dawley Rats
as §1
The left lung was weighed, ground through a #60 wire mesh, and suspended 1:10 (w/v) in Hank's balanced salts solution without cations (HBSS-) and 10 mM β-mercaptoethanol (β-Me). Slides were prepared by spotting 5 μl of lung homogenate diluted 1:10 in HBSS- with β-Me and allowed to air dry. The slides were stained with cresyl violet and the cysts were counted using a blinded protocol. The number of cysts/g of original lung tissue was calculated and the groups were reported as the percent of saline-treated controls.

Giardia lamblia = assay: In vitro activity against Giardia lamblia ([3H]-thymidine incorporation); assay type: cell-based, strain WB (ATCC #30957); details: 42 hours, 37° C., read-out: IC50 ± S.D. In Vitro Antigiaridal Activity
Description: In vitro Biological Activity of Bis-Benzimidazoles Against Giardia lamblia
In brief, Giardia lamblia, strain WB (ATCC #30957) was grown to early log phase in filter sterilized Keister's medium with 10% heat-inactivated fetal bovine serum and 50 μg/ml ampicillin and 50 μg/ml gentamicin sulfate. Assay medium was modified Keister's medium plus 5% heat-inactivated fetal bovine serum. The assay procedure was carried out in accordance with the following steps:
(1) (0 hours) Serial dilutions of diamidines suspended in assay medium were prepared in duplicate rows of a 96-well microtiter plate and 2.5×10^4 trophozoites were added to each well. Plates were placed in an anaerobic chamber, gassed with nitrogen, and incubated at 37° C.
(2) (24 hours) Added [methyl-^3 H]-thmidine (1-10 Ci/mmol) to yield 1.5-2 μCi/well.
(3) (42 hours) Harvested cells with multimash-type cell harvester onto glass microfiber paper. Washed and dried filters were counted using a scintillation counter to determine the incorporation of [^3 H]-thymidine.
(4) Data on uptake of [^3 H]-thymidine were fitted to a logistic-logarithmic concentration response function by a non-linear regression method and drug concentrations required to inhibit 50% incorporation of [^3 H]-thymidine were determined.

Pneumocystis carinii [3] = assay: Treatment of Pneumocystis carinii pneumonia in rats: histologic scoring of lung cysts (GMS stain); assay type: in vivo, Sprague-Dawley rats; design: key to Mean Histologic Score: lung cyst score: 0.5 = <10 cysts, 4 = >50% of lung tissue involved; details: daily i.v., 14 days; for No. of animals with histologic score 0.5: 0.5 = less than 10 cysts per two sections; for No. of animals with histologic score 1: 1 = <10% of lung tissue involved; for No. of animals with histologic score 2: 2 = 10 to 25% of lung tissue involved; for No. of animals with histologic score 3: 3 = 26 to 50% of lung tissue involved; for No. of animals with histologic score 4: 4 = >50% of lung tissue involved; for Mean Histologic Score: score scale 0.5-4
Description: as §2, §1
All animals were sacrificed at the end of the eighth week by chloroform inhalation and the right lung was inflated in situ with 10% formalin and fixed for histologic examination. The fixed lung tissue was sectioned longitudinally and stained with Grocott's methenamine silver (GMS) stain which selectively stains the walls of th P. carinii cysts. Stained sections were coded and each section was scored by 2 examiners using a blinded protocol. Sections were read and scored according to modification of known procedures (P. Walzer et al., Antimicrob. Agents. Chemother. 32: 896-905 (1988)) as follows: 0.5=less than 10 cysts counted per two fully examinec sections; 1=scattered cysts with <10% of lung tissue involved; 2=scattered cysts with limited intense focal involvement and 10 to 25% of lung tissue involved; 3=scattered cysts with numerous intense areas of focal involvement and 26 to 50% of lung tissue involved; 4=cysts found throughout the tissue with numerous very intense focal areas of involvement having >50% of lung tissue involved.
The Chi square goodness of fit was used to calculate the p values of each test group when compared to the saline-treated and pentamidine-treated groups. The statistical analysis was carried out using the StatView 512+ software package (Brainpower, Inc., Calabasas, Calif.) on a Macintosh II computer.

Pneumocystis carinii [4] = assay: Anti-PCP activity in rats; assay type: in vivo, Sprague-Dawley rats
[5] = patients, intramuscular and intravenous routes; cited from earlier work
[6] = 10.0 mg/kg, daily i.v., 14 days, vs. saline-treated controls
[7] = daily i.v., 14 days, vs. saline-treated controls

Molecule | No. of animals with histologic score 0.5 (Pneumocystis carinii [3]; 10.0 mg/kg) [animals] | No. of animals with histologic score 1 (Pneumocystis carinii [3]; 10.0 mg/kg) [animals] | No. of animals with histologic score 2 (Pneumocystis carinii [3]; 10.0 mg/kg) [animals] | No. of animals with histologic score 3 (Pneumocystis carinii [3]; 10.0 mg/kg) [animals] | No. of animals with histologic score 4 (Pneumocystis carinii [3]; 10.0 mg/kg) [animals] | Mean Histologic Score (Pneumocystis carinii [3]; 10.0 mg/kg) | IC50 (Giardia lamblia; Giardia duodenalis) [µM] | response vs control in vivo at 10 mg/kg (Pneumocystis carinii [2]; [6]) [%] | other results
1,4-bis[5-amidino-2-benzimidazolyl]propane [Compound 7] | 10 | 2 | 0 | 0 | 0 | 0.6 |  |  | Toxicity [1]: 0; Cysts/g Lung (% of Control) (Pneumocystis carinii [2]; [6]): 1.67 % of Control; IC50 (Giardia lamblia): 8.15 ± 6.9 µM
N=C(N)c1ccc2nc(Cc3nc4ccc(C(=N)N)cc4[nH]3)[nH]c2c1 [Compound 1, bis[5-amidino-2-benzimidazolyl]methane] | 7 | 1 | 0 | 0 | 0 | 0.6 | 307 ± 28.3 |  | Toxicity [1]: 0
N=C(N)c1ccc2nc(CCc3nc4ccc(C(=N)N)cc4[nH]3)[nH]c2c1 [Compound 3, 1,2-bis[5-amidino-2-benzimidazolyl]ethane] | 7 | 3 | 0 | 0 | 0 | 0.7 | 0.33 ± 0.15 | 2.05 | 
N=C(N)c1ccc2nc(CCCc3nc4ccc(C(=N)N)cc4[nH]3)[nH]c2c1 [Compound 5, 1,3-bis[5-amidino-2-benzimidazolyl]propane] | 0 | 1 | 1 | 7 | 3 | 3.0 | 32.5 ± 6.4 | 64.6 | 
c1cc2[nH]c(CCCc3nc4cc(C5=NCCN5)ccc4[nH]3)nc2cc1C1=NCCN1 [Compound 6] | 1 | 7 | 3 | 1 | 0 | 1.4 | 49.5 ± 7.8 | 9.23 | 
c1cc2[nH]c(CCCCc3nc4cc(C5=NCCN5)ccc4[nH]3)nc2cc1C1=NCCN1 [Compound 8] | 12 | 0 | 0 | 0 | 0 | 0.5 | 14.5 ± 3.5 | 0.07 | toxicity relative to the parent compound ([1]; vs. pentamidine (parent compound)): significantly less toxic than the parent compound; activity against PCP when administered orally (Pneumocystis carinii [4]; oral, daily dose of 25 mg/kg): exhibited some activity against PCP; potency as an anti-PCP agent relative to pentamidine (Pneumocystis carinii [4]; vs. pentamidine): over four times more potent
N=C(N)c1ccc2nc(CCCCCCCCc3nc4ccc(C(=N)N)cc4[nH]3)[nH]c2c1 [Compound 9, 1,8-bis[5-amidino-2-benzimidazolyl]octane] |  |  |  |  |  |  | 0.04 ± 0.01 |  | response vs control in vivo at 5 mg/kg (Pneumocystis carinii [2]; [7]): 31.8%; No. of animals with histologic score 0.5 (Pneumocystis carinii [3]; 5.0 mg/kg): 1 animals; No. of animals with histologic score 1 (Pneumocystis carinii [3]; 5.0 mg/kg): 0 animals; No. of animals with histologic score 2 (Pneumocystis carinii [3]; 5.0 mg/kg): 8 animals; No. of animals with histologic score 3 (Pneumocystis carinii [3]; 5.0 mg/kg): 3 animals; No. of animals with histologic score 4 (Pneumocystis carinii [3]; 5.0 mg/kg): 0 animals; Mean Histologic Score (Pneumocystis carinii [3]; 5.0 mg/kg): 2.1
N=C(N)c1ccc2nc(/C=C/c3nc4ccc(C(=N)N)cc4[nH]3)[nH]c2c1 [Compound 10, trans-1,2-bis[5-amidino-2-benzimidazolyl]ethene] |  |  |  |  |  |  |  |  | response vs control in vivo at 5 mg/kg (Pneumocystis carinii [2]; [7]): 2.14%; No. of animals with histologic score 0.5 (Pneumocystis carinii [3]; 5.0 mg/kg): 1 animals; No. of animals with histologic score 1 (Pneumocystis carinii [3]; 5.0 mg/kg): 5 animals; No. of animals with histologic score 2 (Pneumocystis carinii [3]; 5.0 mg/kg): 5 animals; No. of animals with histologic score 3 (Pneumocystis carinii [3]; 5.0 mg/kg): 1 animals; No. of animals with histologic score 4 (Pneumocystis carinii [3]; 5.0 mg/kg): 0 animals; Mean Histologic Score (Pneumocystis carinii [3]; 5.0 mg/kg): 1.5
N=C(N)c1ccc(OCCCCCOc2ccc(C(=N)N)cc2)cc1 [Pentamidine, reference compound] | 12 | 38 | 17 | 4 | 0 |  |  |  | response vs control in vivo at 10 mg/kg (Pneumocystis carinii [2]): 3.13%
N=C(N)c1ccc(OCCCCCOc2ccc(C(=N)N)cc2)cc1 [pentamidine isethionate] |  |  |  |  |  |  |  |  | side effects / fatalities [5]: Some fatalities have been attributed to severe hypotension, hypoglycemia, and cardiac arrhythmias
